Data on 24 compounds can be found in patent US20250228835A1, “PYRIDINYLOXYPYRIDINES AND RELATED COMPOUNDS AND THEIR USE IN TREATING MEDICAL CONDITIONS” (Rectify Pharmaceuticals, Inc., priority 2024, published 2025).

A value given as a limit tells only on which side of the number the result lay.

Holding throughout (type): cell-based
The target of one experiment is T1, ABCB4 WT (Homo sapiens, UniProt P21439).
T1 construct: expressed in transfected cells
Description: ABCB4 WT assay: HiBit protein expression. The settings on record: HEK-293 cells stably expressing HiBit-tagged ABCB4 WT; 24 h treatment; top concentration 30 μM; read-out: ABCB4 WT EC50, Emax. The text has this:
To assess activity against ABCB4, compounds were screened in an assay measuring protein expression, using cells transfected with cDNA encoding HiBit-tagged ABCB4 wild-type.
(§1) Described here is an assay for measuring the expression of the wild type of human ABCB4 (henceforth referred to as ABCB4 WT) and the use of this assay to measure the efficacy of compounds to increase the expression of ABCB4 WT. The assay was designed to characterize the efficacy and potency of compounds to increase the expression of ABCB4 WT by calculating an Emax and EC50 value. HEK-293 cells stably expressing ABCB4 WT (HEK-293/ABCB4 WT) were used for this assay and were maintained at 37° C. (5% CO2, humidified) in Dulbecco's Modified Eagle Medium (DMEM, Gibco product #12100) supplemented with 10% fetal bovine serum (Biosera product #FB-1058/500), 1% PenStrep (HDB product #15140-122), and 0.5 mg/mL puromycin (Gibco product #A11138-03). For the assay, the HEK-293/ABCB4 WT cells were seeded in white/opaque 384-well plates (Corning product #3570) at 10,000 cells/well in 20 μl growth medium and allowed to settle for 4 hours at 37° C. (5% CO2, humidified). Compound serial dilutions are prepared in DMSO as three hundred times (333×) the final concentration and using a dilution factor of 3 using Bravo (Agilent). After the four-hour incubation period, 60 nL of DMSO solutions are transferred to the assay plate.
(§2) Dose response curves include eleven doses with the top final concentration at 30 μM in 0.3% DMSO. Liquid handling is performed with ECHO 550 Acoustic Liquid Handler (Labcyte). After addition of compound treatment, cells are incubated for 24 hours at 37° C. (5% CO2, humidified). After the 24-hour treatment, plates are allowed to equilibrate to room temperature for 10 minutes. Using Dragonfly Automated Liquid Handler (TTP LabTech), 20 μl of HiBit lytic assay reagent (Promega, product #N3040), which is prepared according to manufacturer's instructions, is added to each well. The plates are rotated at room temperature for 2 minutes and incubated for 1 hour at 25° C. before luminescent signal is acquired using an EnVision Multimode Plate Reader (PerkinElmer).
Results are presented below in Table 5 for ABCB4 WT.
(HiBiT is a short tag that completes a luciferase, so light tracks the accessible tagged protein.)

A further experiment concerns the target T2, ABCA4 P1380L (Homo sapiens, UniProt P78363, P1380L).
T2 construct: expressed in transfected cells
Description: A4 correction dose-response assay: ABCA4 P1380L HiBit protein expression. The settings on record: HEK-293 cells stably expressing HiBit-tagged ABCA4 P1380L; 24 h treatment; top concentration 30 μM; read-out: ABCA4 P1380L EC50, Emax. How it is done: Exemplary compounds were evaluated in an A4 correction dose-response assay.
To assess activity against ABCA4 P1380L, the compounds were screened in an assay measuring protein expression, using cells transfected with cDNA encoding HiBit-tagged ABCA4 P1380L. Here we describe an assay for measuring the expression of the P1380L variant of human ABCA4 (henceforth referred to as ABCA4 P1380L) and the use of this assay to measure the efficacy of compounds to increase the expression of ABCA4 P1380L. The assay was designed to characterize the efficacy and potency of compounds to increase the expression of ABCA4 P1380L by calculating an Emax and EC50 value. […] (5% CO2, humidified). […] After the four-hour incubation period, 60 nL of DMSO solutions are transferred to the assay plate.
as §2

For another experiment, the target named is T3, ABCD2 WT (Homo sapiens, UniProt Q9UBJ2).
T3 construct: expressed in transfected cells
T3 sequence (Q9UBJ2 1-740): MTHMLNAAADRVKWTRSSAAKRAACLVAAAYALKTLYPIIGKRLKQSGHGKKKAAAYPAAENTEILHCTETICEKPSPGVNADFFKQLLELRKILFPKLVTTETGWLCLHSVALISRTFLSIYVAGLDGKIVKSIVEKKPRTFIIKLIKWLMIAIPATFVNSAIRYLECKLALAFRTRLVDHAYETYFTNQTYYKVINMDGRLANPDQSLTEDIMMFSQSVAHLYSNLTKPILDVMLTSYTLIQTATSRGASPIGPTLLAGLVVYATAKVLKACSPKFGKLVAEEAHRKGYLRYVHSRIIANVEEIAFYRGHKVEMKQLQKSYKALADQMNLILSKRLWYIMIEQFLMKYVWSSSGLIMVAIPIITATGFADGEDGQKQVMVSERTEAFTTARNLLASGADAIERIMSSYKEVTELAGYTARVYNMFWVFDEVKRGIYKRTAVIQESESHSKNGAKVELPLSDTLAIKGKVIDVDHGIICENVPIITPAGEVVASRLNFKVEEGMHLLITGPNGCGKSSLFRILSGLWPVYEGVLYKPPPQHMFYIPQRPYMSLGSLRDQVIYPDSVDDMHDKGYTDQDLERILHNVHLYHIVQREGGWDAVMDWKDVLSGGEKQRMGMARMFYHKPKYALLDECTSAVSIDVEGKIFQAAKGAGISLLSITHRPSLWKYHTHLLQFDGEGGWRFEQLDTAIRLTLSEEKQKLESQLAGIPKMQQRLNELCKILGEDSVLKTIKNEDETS
Description: D2 correction dose-response assay: ABCD2 WT HiBit protein expression. The conditions noted are these: HEK-293/ABCD2 WT cells, 24 hours treatment, HiBit luminescence; class combines EC50 and Mean MaxAct (fold); read-out: ABCD2 WT EC50, Emax. The procedure: Exemplary compounds were evaluated in a D2 correction dose-response assay.
as §1, with “To assess activity against ABCD2, the compounds were screened in an assay measuring protein expression, using cells transfected with cDNA encoding HiBit-tagged ABCD2 wild-type. Here we describe” for “Described here is”, “ABCD2” for “ABCB4”, “(HEK-293/ABCD2” for “(HEK-293/ABCB4”, “HEK-293/ABCD2” for “HEK-293/ABCB4”
as §2

T1 sequence (P21439 whole entry): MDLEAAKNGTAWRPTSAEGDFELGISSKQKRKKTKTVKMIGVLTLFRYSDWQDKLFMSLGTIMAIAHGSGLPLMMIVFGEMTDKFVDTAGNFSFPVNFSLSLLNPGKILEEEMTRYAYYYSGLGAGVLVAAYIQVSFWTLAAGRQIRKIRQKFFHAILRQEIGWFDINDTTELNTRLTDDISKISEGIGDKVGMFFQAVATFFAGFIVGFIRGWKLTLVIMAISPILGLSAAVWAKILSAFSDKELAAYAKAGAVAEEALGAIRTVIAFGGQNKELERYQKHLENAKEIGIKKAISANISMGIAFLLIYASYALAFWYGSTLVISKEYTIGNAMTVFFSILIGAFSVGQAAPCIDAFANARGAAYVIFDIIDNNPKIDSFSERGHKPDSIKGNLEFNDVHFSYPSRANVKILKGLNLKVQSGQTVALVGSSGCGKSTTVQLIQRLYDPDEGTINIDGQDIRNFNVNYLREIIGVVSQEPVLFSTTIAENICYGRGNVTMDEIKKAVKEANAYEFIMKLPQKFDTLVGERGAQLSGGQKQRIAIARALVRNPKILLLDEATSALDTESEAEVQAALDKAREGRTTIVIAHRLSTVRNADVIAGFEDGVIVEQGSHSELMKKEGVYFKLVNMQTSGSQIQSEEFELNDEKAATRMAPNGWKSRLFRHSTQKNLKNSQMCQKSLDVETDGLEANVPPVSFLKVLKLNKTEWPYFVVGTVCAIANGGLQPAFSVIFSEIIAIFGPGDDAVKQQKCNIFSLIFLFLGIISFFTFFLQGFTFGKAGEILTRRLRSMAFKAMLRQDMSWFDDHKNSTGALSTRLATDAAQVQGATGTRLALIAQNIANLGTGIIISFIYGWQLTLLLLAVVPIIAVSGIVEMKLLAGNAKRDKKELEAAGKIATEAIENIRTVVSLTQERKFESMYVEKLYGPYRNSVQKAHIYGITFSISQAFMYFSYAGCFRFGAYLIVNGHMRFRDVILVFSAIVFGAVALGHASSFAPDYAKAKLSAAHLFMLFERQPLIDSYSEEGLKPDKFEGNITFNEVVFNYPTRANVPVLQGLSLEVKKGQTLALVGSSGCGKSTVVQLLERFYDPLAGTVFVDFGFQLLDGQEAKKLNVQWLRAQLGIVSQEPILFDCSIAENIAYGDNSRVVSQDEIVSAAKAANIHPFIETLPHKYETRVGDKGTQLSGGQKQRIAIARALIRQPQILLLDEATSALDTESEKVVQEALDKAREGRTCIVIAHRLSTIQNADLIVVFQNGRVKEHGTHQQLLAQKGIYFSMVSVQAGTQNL
T2 sequence (P78363 whole entry P1380L): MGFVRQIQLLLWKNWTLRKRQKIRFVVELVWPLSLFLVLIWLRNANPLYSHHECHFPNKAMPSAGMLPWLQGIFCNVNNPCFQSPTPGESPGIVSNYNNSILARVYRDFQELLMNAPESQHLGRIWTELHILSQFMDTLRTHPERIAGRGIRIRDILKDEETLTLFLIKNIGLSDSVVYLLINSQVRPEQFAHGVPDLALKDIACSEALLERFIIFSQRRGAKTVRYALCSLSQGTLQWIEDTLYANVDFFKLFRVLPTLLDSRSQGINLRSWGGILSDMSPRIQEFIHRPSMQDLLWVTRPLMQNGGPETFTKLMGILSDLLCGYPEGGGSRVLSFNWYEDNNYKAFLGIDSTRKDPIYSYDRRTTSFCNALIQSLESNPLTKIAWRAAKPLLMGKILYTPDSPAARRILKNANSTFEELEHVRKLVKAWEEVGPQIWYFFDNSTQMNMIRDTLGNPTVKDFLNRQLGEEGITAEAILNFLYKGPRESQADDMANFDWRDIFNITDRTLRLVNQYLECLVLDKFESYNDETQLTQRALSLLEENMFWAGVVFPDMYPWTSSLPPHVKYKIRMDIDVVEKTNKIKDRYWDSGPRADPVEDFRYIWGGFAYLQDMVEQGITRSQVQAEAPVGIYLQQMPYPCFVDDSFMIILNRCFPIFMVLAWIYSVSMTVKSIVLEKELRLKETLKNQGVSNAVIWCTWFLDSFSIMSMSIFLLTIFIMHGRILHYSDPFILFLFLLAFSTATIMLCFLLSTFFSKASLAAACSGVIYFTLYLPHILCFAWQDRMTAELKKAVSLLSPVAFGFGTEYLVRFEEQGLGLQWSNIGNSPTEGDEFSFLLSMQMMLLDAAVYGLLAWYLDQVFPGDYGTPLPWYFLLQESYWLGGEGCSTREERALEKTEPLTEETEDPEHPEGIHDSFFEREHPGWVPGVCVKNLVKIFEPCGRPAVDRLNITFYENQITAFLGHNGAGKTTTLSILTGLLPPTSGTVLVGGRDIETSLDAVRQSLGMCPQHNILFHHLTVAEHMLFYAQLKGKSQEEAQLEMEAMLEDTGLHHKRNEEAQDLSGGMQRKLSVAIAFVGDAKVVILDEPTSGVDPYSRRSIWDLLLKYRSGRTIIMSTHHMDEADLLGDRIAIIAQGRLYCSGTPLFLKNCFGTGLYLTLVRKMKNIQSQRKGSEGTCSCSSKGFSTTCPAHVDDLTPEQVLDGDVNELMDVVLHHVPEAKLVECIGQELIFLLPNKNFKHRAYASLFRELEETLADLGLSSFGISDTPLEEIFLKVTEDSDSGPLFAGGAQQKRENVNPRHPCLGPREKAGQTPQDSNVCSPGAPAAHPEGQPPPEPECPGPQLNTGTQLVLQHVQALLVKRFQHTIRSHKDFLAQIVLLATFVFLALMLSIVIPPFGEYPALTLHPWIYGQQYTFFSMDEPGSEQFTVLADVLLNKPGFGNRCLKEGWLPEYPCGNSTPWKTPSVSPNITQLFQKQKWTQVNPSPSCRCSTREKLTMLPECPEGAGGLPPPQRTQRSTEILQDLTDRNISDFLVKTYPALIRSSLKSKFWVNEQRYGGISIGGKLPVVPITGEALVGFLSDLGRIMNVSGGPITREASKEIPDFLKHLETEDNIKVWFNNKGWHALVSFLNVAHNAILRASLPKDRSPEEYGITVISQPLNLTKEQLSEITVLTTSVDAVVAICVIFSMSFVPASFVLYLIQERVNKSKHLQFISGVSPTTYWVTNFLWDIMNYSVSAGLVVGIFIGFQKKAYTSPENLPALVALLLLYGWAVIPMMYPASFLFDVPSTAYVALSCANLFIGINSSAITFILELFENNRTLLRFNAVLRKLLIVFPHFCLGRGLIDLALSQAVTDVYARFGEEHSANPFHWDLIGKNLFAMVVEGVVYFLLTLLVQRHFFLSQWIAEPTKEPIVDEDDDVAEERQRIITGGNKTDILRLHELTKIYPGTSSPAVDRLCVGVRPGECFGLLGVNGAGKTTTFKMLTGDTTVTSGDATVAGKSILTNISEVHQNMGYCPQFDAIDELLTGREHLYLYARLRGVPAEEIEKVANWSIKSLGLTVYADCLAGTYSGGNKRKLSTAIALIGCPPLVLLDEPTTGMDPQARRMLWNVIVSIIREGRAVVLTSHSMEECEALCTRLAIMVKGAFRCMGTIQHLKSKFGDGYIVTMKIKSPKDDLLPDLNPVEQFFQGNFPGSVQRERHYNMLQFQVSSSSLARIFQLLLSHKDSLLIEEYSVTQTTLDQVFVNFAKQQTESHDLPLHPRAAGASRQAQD

What is called EC50 is the concentration needed to bring the measured effect to its halfway point. Consider `Cc1cc(C2CC2)nc(C)c1Oc1nc(-c2cncc(C#N)c2)ccc1NS(C)(=O)=O` [Compound I-4], for which the EC50 on ABCB4 WT, on ABCA4 P1380L and at ABCD2 WT was below 1 µM throughout.

Turning to `Cc1cc(C)c(Oc2nc(-c3cncc(C#N)c3)ccc2NS(C)(=O)=O)c(C)n1` [Compound I-5], the EC50 at ABCB4 WT, on ABCA4 P1380L and at ABCD2 WT was below 1 µM throughout.

For `Cc1cc(C)c(Oc2nc(-c3ccc(C#N)nc3C)ccc2NS(C)(=O)=O)c(C)c1` [Compound I-6], the half-maximal effective concentration (EC50) on ABCB4 WT is at least 25 µM; at ABCA4 P1380L, 10 to 25 µM; on ABCD2 WT it was below 1 µM.

With `Cc1cc(C)c(Oc2nc(-c3ccc(C#N)nc3)ccc2NS(C)(=O)=O)c(C)n1` [Compound I-7], the EC50 at ABCB4 WT, on ABCA4 P1380L and at ABCD2 WT was below 1 µM each time.

Regarding `Cc1cc(C)c(Oc2nc(-c3cnc(C#N)c(Cl)c3)ccc2NS(C)(=O)=O)c(C)n1` [Compound I-8], the EC50 at ABCB4 WT, at ABCA4 P1380L and at ABCD2 WT was below 1 µM each time.

As to `Cc1cc(C)c(Oc2nc(-c3cncc(Cl)c3)ncc2NS(C)(=O)=O)c(C)c1` [Compound I-9], the EC50 on ABCB4 WT was at least 25 µM; at ABCA4 P1380L, above 25 µM; at ABCD2 WT it was below 1 µM.

Consider `Cc1cc(C)c(Oc2nc(-c3cncc(C#N)c3)ncc2NS(C)(=O)=O)c(C)c1` [Compound I-10], for which the EC50 at ABCB4 WT was at least 25 µM; on ABCA4 P1380L, below 1 µM; at ABCD2 WT it was below 1 µM.

Turning to `CNS(=O)(=O)c1ccc(-c2cncc(Cl)c2)nc1Oc1c(C)cc(C)cc1C` [Compound I-95], the EC50 on ABCB4 WT, at ABCA4 P1380L and at ABCD2 WT was below 1 µM each time.

For `Cc1cc(C)c(Oc2nc(-c3cncc(Cl)c3)ccc2S(=O)(=O)N2CCCC2)c(C)c1` [Compound I-96], the EC50 is 1 to 10 µM on ABCB4 WT, above 25 µM at ABCA4 P1380L and 1 to 10 µM at ABCD2 WT.

As for `Cc1cc(C)c(Oc2nc(-c3cncc(Cl)c3)ccc2S(=O)(=O)N(C)C)c(C)c1` [Compound I-97], the EC50 is 1 to 10 µM at ABCB4 WT, above 25 µM on ABCA4 P1380L and 1 to 10 µM on ABCD2 WT.

Consider `Cc1cc(C)c(Oc2nc(-c3cncc(Cl)c3)ccc2S(=O)(=O)NC2CC2)c(C)c1` [Compound I-98], for which the EC50 at ABCB4 WT was below 25 µM; at ABCA4 P1380L it was above 25 µM; on ABCD2 WT, below 1 µM.

Take `Cc1cc(C)c(Oc2nc(-c3cncc(Cl)c3)ccc2S(=O)(=O)NC(C)(C)C)c(C)c1` [Compound I-99]: the EC50 at ABCB4 WT is at least 25 µM; on ABCA4 P1380L, above 25 µM; on ABCD2 WT, above 25 µM.

As to `Cc1cc(C)c(Oc2nc(-c3cncc(Cl)c3)ccc2S(N)(=O)=O)c(C)c1` [Compound I-100], the values for the EC50 at ABCB4 WT, at ABCA4 P1380L and on ABCD2 WT were at least 25 µM, 10 to 25 µM and below 1 µM, respectively.

On to `Cc1cc(C)c(Oc2nc(-c3cccc(Cl)c3)ccc2S(=O)(=O)NC2CCOC2)c(C)c1` (stereo not drawn) [Compound I-101], for which the EC50 was at least 25 µM at ABCB4 WT, 1 to 10 µM at ABCA4 P1380L and 1 to 10 µM at ABCD2 WT.

As for `Cc1cc(C)c(Oc2nc(-c3cccc(Cl)c3)ccc2S(N)(=O)=O)c(C)c1` [Compound I-102], the EC50 on ABCB4 WT is at least 25 µM; at ABCA4 P1380L, below 1 µM; on ABCD2 WT, above 25 µM.

For the compound `Cc1cc(C)c(Oc2nc(-c3cncc(Cl)c3)ccc2S(C)(=N)=O)c(C)c1` (stereo not drawn) [Compound I-103], the 50% effective concentration (EC50) on ABCB4 WT was below 1 µM; at ABCA4 P1380L it was 1 to 10 µM; on ABCD2 WT, 1 to 10 µM.

Regarding `Cc1cc(C)c(Oc2nc(-c3cncc(Cl)c3)ccc2S(C)(=O)=O)c(C)c1` [Compound I-104], the EC50 on ABCB4 WT is 1 to 10 µM; at ABCA4 P1380L, 1 to 10 µM; at ABCD2 WT it was above 25 µM.

For the compound `Cc1cc(C(F)(F)F)nc(C2CC2)c1Oc1nc(-c2cncc(C#N)c2)ccc1S(=O)(=O)NC1CC1` [Compound I-133], the 50% effective concentration (EC50) was 1 to 10 µM at ABCB4 WT, below 1 µM at ABCA4 P1380L and below 1 µM on ABCD2 WT.

`Cc1cc(C(F)F)nc(C2CC2)c1Oc1nc(-c2cncc(C#N)c2)ccc1N(C)S(=O)(=O)C1CC1` [Compound I-134]: the EC50 on ABCB4 WT was below 1 µM; at ABCA4 P1380L it was above 25 µM; on ABCD2 WT, 1 to 10 µM.

Regarding `Cc1cc(C(F)F)nc(C2CC2)c1Oc1nc(-c2cncc(C#N)c2)ccc1N(C)S(C)(=O)=O` [Compound I-135], the concentration giving a half-maximal response (EC50) on ABCB4 WT is below 1 µM; at ABCA4 P1380L, above 25 µM; at ABCD2 WT it was 1 to 10 µM.

With `Cc1cc(C)c(Oc2nc(-c3cncc(C#N)c3)ccc2N(C)S(=O)(=O)c2cccnc2)c(C2CC2)n1` [Compound I-136], the EC50 is below 1 µM at ABCB4 WT, 1 to 10 µM on ABCA4 P1380L and 1 to 10 µM on ABCD2 WT.

As to `Cc1cc(C(F)F)nc(C2CC2)c1Oc1nc(-c2cncc(C#N)c2)ccc1NS(C)(=O)=O` [Compound I-137], the EC50 on ABCB4 WT, at ABCA4 P1380L and at ABCD2 WT was below 1 µM in each case.

Take `CS(=O)(=O)Nc1ccc(-c2cncc(C#N)c2)nc1Oc1c(C2CC2)nc(C(F)(F)F)nc1C1CC1` [Compound I-138]: the EC50 at ABCB4 WT, on ABCA4 P1380L and on ABCD2 WT was below 1 µM in each case.

In the case of `Cc1cc(C(F)(F)F)nc(C2CC2)c1Oc1nc(-c2cncc(C#N)c2)ccc1N(C)S(=O)(=O)C1CC1` [Compound I-139], the EC50 is below 1 µM at ABCB4 WT, above 25 µM at ABCA4 P1380L and 1 to 10 µM at ABCD2 WT.
